Data: US20230416328A1, “C-Type Natriuretic Peptides and Methods Thereof in Treating Acute Lung Injury” (priority 2020, published 2023)
Numbered stars: 1 amine (or outer) side, 2 acyl side, 3 side chain; on linkers, the order of the positions; unused ones are H or OH. Bridge positions count the residues as written; N and C are the ends. Square brackets hold non-standard residues; d marks the D form. Peptide text beside a SMILES is read from it. * marks the point of attachment. C18 diacid = O=C(O)CCCCCCCCCCCCCCCCC(=O)*; γGlu = O=C(O)[C@H](CCC(=O)[*:2])N[*:1]; Aad = N[C@@H](CCCC(=O)O)C(=O)O; AEEA = NCCOCCOCC(=O)O

Columns and labels:
[1] = tested on: LPS-induced sepsis; assay: LPS-induced sepsis lethality in Balb/c mice (survival); type: in vivo; details: LPS 10 mg/kg i.p., 1.0 mg/kg s.c.
Experimental: Male Balb/c mice (11 week) were purchased from Kyudo (Saga, Japan) and maintained under a 12-hour light/12-hour dark cycle with free access to water and standard mouse diet (MF diet, Oriental Yeast Co., Ltd. Tokyo, Japan). […] Test articles were administered right after LPS administration. Survival was observed every 2 hours.
Table 1. […] Shown is the % survival by hours. […] Survival was observed every 2 hours (FIGS. 13A and 13B). First mortality observed was in Italicized and bold and the last observation survival % was in bold in the table.

[2] = species not stated; cited from earlier work
[3] = healthy human volunteers, bolus injection; cited from earlier work
[4] = Pharmacokinetic study: plasma CNP (ELISA) after subcutaneous bolus in CD-1 mice
Experimental: All test articles were formulated or dissolved in 100 mM sorbitol, 100 mM methionine, 20 mM histidine, pH 6.0. […] Blood samples were processed in K2EDTA tubes to obtain plasma. Plasma was analyzed by commercially available CNP ELISA kit from Phoenix Pharmaceuticals (cat #EKE-012-03).

[5] = Pharmacokinetic study of dCNP-s1 and dCNP-s2: plasma CNP (ELISA) in CD-1 mice; type: in vivo; details: 2.0 mg/Kg s.c. bolus, FIG. 20
Experimental: For this pharmacokinetic study, all animals (mice) for this study were maintained under a 12-hour light/12-hour dark cycle with free access to water and standard mouse diet (Lab Pico Rodent #5053; Animal Specialties, Woodburn, OR). Male CD-1 mice (6-8 weeks old; Charles River, Hollister, CA) were treated with 2.0 mg/Kg of CNP derivative s1 (dCNP-s1; PharmaIN Corp, Bothell, WA), and CNP derivative s2 (dCNP-s2; PharmaIN Corp, Bothell, WA) via subcutaneous administration between the shoulder blades.

[6] = in vivo; cited from earlier work
[7] = hours '0' [sic] (second to last observation)

Molecule	Percent animal survival at various time after LPS administration ([1]; hours 1 (last observation)) [%]	Percent animal survival at various time after LPS administration ([1]; hours 3 [sic]) [%]	Percent animal survival at various time after LPS administration ([1]; hours 7 [sic]) [%]	Percent animal survival at various time after LPS administration ([1]; hours 9 [sic]) [%]	Percent animal survival at various time after LPS administration ([1]; hours '0') [%]	Percent animal survival at various time after LPS administration [1, 7] [%]	Percent animal survival at various time after LPS administration ([1]; hours '2') [%]	Percent animal survival at various time after LPS administration ([1]; hours '8') [%]	also measured
CC[C@H](C)[C@@H]1NC(=O)[C@H](CCCNC(=N)N)NC(=O)[C@H](CC(=O)O)NC(=O)[C@H](CCSC)NC(=O)[C@H](CCCNC(=N)N)NC(=O)CNC(=O)CNC(=O)[C@H](Cc2ccccc2)NC(=O)[C@@H](NC(=O)[C@H](CO)NC(=O)[C@H](CO)NC(=O)[C@H](CCCNC(=N)N)NC(=O)[C@H](CCCNC(=N)N)NC(=O)[C@H](CC(C)C)NC(=O)[C@@H](N)CO)CSSC[C@@H](C(=O)N[C@@H](CC(N)=O)C(=O)N[C@@H](CO)C(=O)N[C@@H](Cc2ccccc2)C(=O)N[C@@H](CCCNC(=N)N)C(=O)N[C@@H](Cc2ccc(O)cc2)C(=O)O)NC(=O)CNC(=O)[C@H](CC(C)C)NC(=O)CNC(=O)[C@H](CO)NC(=O)[C@H](CCC(N)=O)NC(=O)[C@H](C)NC(=O)CNC1=O [ANP, atrial natriuretic peptide]	10	100	60	30	100	10	100	30	Percent animal survival at various time after LPS administration ([1]; hours printed '6' (r14)): 60%
CC[C@H](C)[C@@H]1NC(=O)[C@H](CCCNC(=N)N)NC(=O)[C@H](CC(=O)O)NC(=O)[C@H](CC(C)C)NC(=O)[C@H](CCCCN)NC(=O)[C@H](CC(C)C)NC(=O)CNC(=O)[C@H](Cc2ccccc2)NC(=O)[C@@H](NC(=O)CNC(=O)[C@H](CCCCN)NC(=O)[C@H](CO)NC(=O)[C@H](CC(C)C)NC(=O)CN)CSSC[C@@H](C(=O)O)NC(=O)CNC(=O)[C@H](CC(C)C)NC(=O)CNC(=O)[C@H](CO)NC(=O)[C@H](CCSC)NC(=O)[C@H](CO)NC(=O)CNC1=O [CNP]	–	–	–	–	–	–	–	–	half-life [2]: 2 to 13 min; heart rate [3]: significant increase in heart rate; systolic and diastolic blood pressure [3]: transient but significant decrease; plasma CNP ([4]; CD-1 mice, 2.0 mg/Kg s.c. bolus, FIG. 1A): low plasma level of CNP
CCCc1nc(C)c2c(=O)[nH]c(-c3cc(S(=O)(=O)N4CCN(CC)CC4)ccc3OCC)nn12 [VDN, Vardenafil]	0	100	60	20	100	0	100	20	Percent animal survival at various time after LPS administration ([1]; hours printed '5' (r13)): 100%
CC[C@H](C)[C@@H]1NC(=O)[C@H](CCCNC(=N)N)NC(=O)[C@H](CC(=O)O)NC(=O)[C@H](CC(C)C)NC(=O)[C@H](CCCCN)NC(=O)[C@H](CC(C)C)NC(=O)CNC(=O)[C@H](Cc2ccccc2)NC(=O)[C@@H](NC(=O)CNC(=O)COCCOCCNC(=O)COCCOCCNC(=O)CCCCCCCCCCCCCCCCC(=O)O)CSSC[C@@H](C(=O)O)NC(=O)CNC(=O)[C@H](CC(C)C)NC(=O)CNC(=O)[C@H](CO)NC(=O)[C@H](CCCC(N)=O)NC(=O)[C@H](CO)NC(=O)CNC1=O [dCNP-s1] ({C18 diacid-AEEA-AEEA}-GCFGLKLDRIGS[Aad](NH2)SGLGC-OH; disulfide 2-18)	–	–	–	–	–	–	–	–	blood level of CNP relative to native CNP at similar weight/Kg dose [5]: 10 fold
CC[C@H](C)[C@@H]1NC(=O)[C@H](CCCNC(=N)N)NC(=O)[C@H](CC(=O)O)NC(=O)[C@H](CC(C)C)NC(=O)[C@H](CCCCN)NC(=O)[C@H](CC(C)C)NC(=O)CNC(=O)[C@H](Cc2ccccc2)NC(=O)[C@@H](NC(=O)CNC(=O)COCCOCCNC(=O)COCCOCCNC(=O)CC[C@H](NC(=O)CCCCCCCCCCCCCCCCC(=O)O)C(=O)O)CSSC[C@@H](C(=O)O)NC(=O)CNC(=O)[C@H](CC(C)C)NC(=O)CNC(=O)[C@H](CO)NC(=O)[C@H](CCCC(N)=O)NC(=O)[C@H](CO)NC(=O)CNC1=O [dCNP-s2] ({C18 diacid-γGlu-AEEA-AEEA}-GCFGLKLDRIGS[Aad](NH2)SGLGC-OH; disulfide 2-18)	–	–	–	–	–	–	–	–	blood level of CNP relative to native CNP at similar weight/Kg dose [5]: 10 fold
CCCCCCCCCCCCCCCCCC(=O)N[C@@H](CCCCN)C(=O)N[C@@H](CCCCN)C(=O)N[C@@H](CCCCN)C(=O)N[C@@H](CCCCN)C(=O)NCC(=O)NCC(=O)NCC(=O)NCC(=O)N[C@@H](CC(C)C)C(=O)N[C@@H](CO)C(=O)N[C@@H](CCCCN)C(=O)NCC(=O)N[C@H]1CSSC[C@@H](C(=O)O)NC(=O)CNC(=O)[C@H](CC(C)C)NC(=O)CNC(=O)[C@H](CO)NC(=O)[C@H](CCSC)NC(=O)[C@H](CO)NC(=O)CNC(=O)[C@H]([C@@H](C)CC)NC(=O)[C@H](CCCNC(=N)N)NC(=O)[C@H](CC(=O)O)NC(=O)[C@H](CC(C)C)NC(=O)[C@H](CCCCN)NC(=O)[C@H](CC(C)C)NC(=O)CNC(=O)[C@H](Cc2ccccc2)NC1=O [dCNP]	–	–	–	–	–	–	–	–	plasma CNP ([4]; mouse, in vivo, sc, 2 mg/kg): sustained plasma presence
B-type natriuretic peptide [BNP]	10	100	60	20	100	10	100	20	Percent animal survival at various time after LPS administration ([1]; hours printed '5' (r13)): 100%
PGQEHPNARKYKGANKKGLS KGCFGLKLDR IGSMSGLGC (PGQEHPNARKYKGANKKGLSKGCFGLKLDRIGSMSGLGC) [BMN-111]	–	–	–	–	–	–	–	–	arterial blood pressure (BP) [6]: drops; heart rate (HR) [6]: increases
